{"source": "patent US7432397B2", "about": "“Imaging compounds” (Hammersmith Imanet Ltd., priority 2002, dated 2008)", "assay": "Metabolite analysis of plasma and brain tissue (SPE/HPLC)", "type": "in vivo, rat", "conditions": "for parent compound as share of the radioactivity in brain: rat brain; for percentage of radioactivity associated with parent: rat plasma", "procedure": "Sixteen adult male Sprague-Dawley rats (body weight 250-320 g: mean±SD=288±25 g) were used in 5 separate experiments. Each rat was injected with ˜13 MBq Compound 1, at a specific activity of […], via a previously catheterised tail vein. The associated stable compound was 0.5±0.2 nmol/kg. Discrete samples of arterial blood were collected from 9 of the rats via a previously catheterised tail artery.\nPlasma samples were injected directly onto a solid phase extraction (SPE) column (C18), with di-ammonium hydrogen phosphate (0.1 M) mobile phase, and the retained radioactivity subsequently injected onto a reverse phase HPLC column (300×7.8 mm i.d., p-Bondapak C18) with a mobile phase of methanol:0.1 M ammonium formate, […]. The eluates were monitored for radioactivity and absorbance at 254 nm. Brain tissues were assayed using the same methodology, excepting that the samples were homogenised and de-proteinated prior to injection onto the HPLC column."}
{"smiles": "CSc1cccc(N([11CH3])C(=N)Nc2cc(SC)ccc2Cl)c1", "note": "[Compound 1, (N-(2-chloro-5-(methylthio)phenyl)-N′-(3-methylthio)phenyl)-N′-[N-methyl-^11C]-methylguanidine]", "values": [{"measurement": "parent compound as share of the radioactivity in brain", "setting": "20 minutes after i.v. injection", "value": "approximately 95%"}, {"measurement": "parent compound as share of the radioactivity in brain", "setting": "70 minutes after i.v. injection", "value": "~90", "unit": "%"}, {"measurement": "percentage of radioactivity associated with parent", "setting": "10 min after i.v. injection", "value": "~50", "unit": "%"}, {"measurement": "percentage of radioactivity associated with parent", "setting": "90 min after i.v. injection", "value": "~5", "unit": "%"}, {"measurement": "metabolism and clearance from the plasma", "setting": "rat, i.v.", "value": "rapid metabolism and clearance"}]}
